Tests used:
Rattus norvegicus [1] = species on record: Rattus norvegicus; experiment: Inhibition of angiogenesis (new microvessel growth) in rat aortic ring model at 100 uM in Endothelial basal medium (EBM) and Dimethylsulfoxide (DMSO); assay type: functional; details: Aorta
Rattus norvegicus [2] = species on record: Rattus norvegicus; experiment: Inhibition of angiogenesis (new microvessel growth) in rat aortic ring model at 200 uM in Endothelial basal medium (EBM) and Dimethylsulfoxide (DMSO); assay type: functional; details: Aorta

Q: `O=C1CCC(N2Cc3ccccc3C2=O)C(=O)N1` (configuration not stated) was tested. Which inhibition at 100 µM (Rattus norvegicus [1]) did it give?
A: 30%

Q: And the inhibition at 200 µM (Rattus norvegicus [2])?
A: 30%
